We go through one compound from patent US6180653A, “Aminopyrazole derivatives” (Banyu Pharmaceutical Co., Ltd., priority 1996, dated 2001).

This test concerns the target T1, human NPY Y5 receptor (Homo sapiens, UniProt Q15761).
T1 construct: expressed in transfected cells
T1 sequence (Q15761 1-445): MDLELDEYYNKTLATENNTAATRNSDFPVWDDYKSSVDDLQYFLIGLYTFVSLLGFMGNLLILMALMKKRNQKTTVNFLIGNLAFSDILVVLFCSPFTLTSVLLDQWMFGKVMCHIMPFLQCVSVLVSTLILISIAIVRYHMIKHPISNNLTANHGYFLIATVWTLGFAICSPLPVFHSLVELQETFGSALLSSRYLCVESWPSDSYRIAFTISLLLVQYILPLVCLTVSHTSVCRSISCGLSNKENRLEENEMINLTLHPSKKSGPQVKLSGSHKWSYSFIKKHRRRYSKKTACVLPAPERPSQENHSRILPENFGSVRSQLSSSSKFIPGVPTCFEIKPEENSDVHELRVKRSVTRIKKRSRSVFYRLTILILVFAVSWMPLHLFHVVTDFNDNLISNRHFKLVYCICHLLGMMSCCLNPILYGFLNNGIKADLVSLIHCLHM
Briefly: test of inhibition of NPY binding ([125I] peptide YY binding to membranes of NPY Y5 receptor-expressing cells). The settings on record: [125I] peptide YY 20,000 cpm, 25° C., 2 hours, pH 7.4; membranes of transfected COS-7, CHO or LM(tk-) cells; read-out: concentration needed to inhibit 50% of the specific binding to the peptide YY (IC50 value). An excerpt:
cDNA Sequence encoding a human NPY Y5 receptor [International Publication WO 96/16542] was cloned into expression vectors pcDNA3, pRc/RSV (manufactured by Invitrogen) and pCI-neo (manufactured by Promega). Using the cationic lipid method [see Proceedings of the National Academy of Science of the United States of America, vol.84, p.7413 (1987)], host cells COS-7, CHO and LM(tk-) (American Type Culture Collection) were transfected with the thus prepared expression vectors to obtain cells in which the NPY Y5 receptor had been expressed.
Each of the membrane preparations thus prepared from the cells in which the NPY Y5 receptor had been expressed was incubated together with each compound to be tested and 20,000 cpm of [^125 I,] peptide YY (manufactured by Amersham) at 25° C. for 2 hours in an assay buffer solution (25 mM HEPES buffer, pH 7.4, containing 10 mM magnesium chloride, 1 mM phenylmethylsulfonyl fluoride and 0.1% bacitracin) and then, the reaction mixture was filtered through a glass filter GF/C. After washing with 50 mM Tris buffer, pH 7.4, containing 0.3% BSA, radioactivity on the glass filter was measured using a gamma counter. […]

Molecules are shown by their SMILES. pIC50: −log10 of the molar value.

In the case of `COc1ccc(-c2cc(NC(=O)Cc3ccc4ccccc4c3)[nH]n2)cc1OC` [Example 6], the pIC50 was 8.08.
